# Test results published in US9149038B2, “4-amino-6-(heterocyclic)picolinates and 6-amino-2-(heterocyclic)pyrimidine-4-carboxylates and their use as herbicides” (Dow AgroSciences LLC, priority 2013, dated 2015).
# Read-outs that look alike come from different tables or passages of the source.
# Assays:
# [1] = test system: Key Broadleaf Weed and Crop Species; assay: Post-Emergent Test II: postemergent herbicidal activity, visual rating after 14 d (Table 7); assay type: in vivo; conditions: post-emergence, 336 h; for pest or weed control at 35 g/ha: 35 g ai/ha; for pest or weed control at 70 g/ha: 70 g ai/ha; for pest or weed control at 140 g/ha: 140 g ai/ha
# How it was run: (§1)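 Scoring is visual, 0-100, at 14 d after application, comparing treated with untreated plants. Application: overhead track spray at 187 L/ha onto seedlings at 1-2 true leaves, in surfactant/crop-oil carrier.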
# [2] = test system: Key Grass and Sedge Weeds as well as Grass Crops; assay: Post-Emergent Test II: postemergent herbicidal activity, visual rating after 14 d (Table 8); assay type: in vivo; conditions: post-emergence, 336 h; for pest or weed control at 35 g/ha: 35 g ai/ha; for pest or weed control at 70 g/ha: 70 g ai/ha; for pest or weed control at 140 g/ha: 140 g ai/ha
# How it was run: as §1
# [3] = ABUTH: velvetleaf (Abutilon theophrasti), read-out: Visual Growth Reduction (%) 14 Days After Application ABUTH
# [4] = AMARE: redroot pigweed (Amaranthus retroflexus), read-out: Visual Growth Reduction (%) 14 Days After Application AMARE
# [5] = BRSNN: oilseed rape, canola (Brassica napus), read-out: Visual Growth Reduction (%) 14 Days After Application BRSNN
# [6] = CHEAL: lambsquarters (Chenopodium album), read-out: Visual Growth Reduction (%) 14 Days After Application CHEAL
# [7] = EPHHL: wild poinsettia (Euphorbia heterophylla), read-out: Visual Growth Reduction (%) 14 Days After Application EPHHL
# [8] = HELAN: sunflower (Helianthus annuus), read-out: Visual Growth Reduction (%) 14 Days After Application HELAN
# [9] = barnyardgrass (Echinochloa crus-galli), read-out: Visual Growth Reduction (%) 14 Days After Application, ECHCG
# [10] = giant foxtail (Setaria faberi), read-out: Visual Growth Reduction (%) 14 Days After Application, SETFA
# [11] = maize, corn (Zea mays), read-out: Visual Growth Reduction (%) 14 Days After Application, ZEAMX
# [12] = rice (Oryza sativa), read-out: Visual Growth Reduction (%) 14 Days After Application, ORYSA
# [13] = wheat, spring (Triticum aestivum), read-out: Visual Growth Reduction (%) 14 Days After Application, TRZAS
# [14] = yellow nutsedge (Cyperus esculentus), read-out: Visual Growth Reduction (%) 14 Days After Application, CYPES
smiles,measurement,setting,value
"COC(=O)c1nc(-c2ccc3c(c2)OCC3)c(F)c(N)c1Cl [Compound 100, Methyl 4-amino-3-chloro-6-(2,3-dihydrobenzofuran-6-yl)-5-fluoropicolinate]",pest or weed control at 35 g/ha,[1]; [3],45 to 59%
same,pest or weed control at 70 g/ha,[1]; [3],85 to 94%
same,pest or weed control at 140 g/ha,[1]; [3],95 to 100%
same,pest or weed control at 35 g/ha,[1]; [4],75 to 84%
same,pest or weed control at 70 g/ha,[1]; [4],95 to 100%
same,pest or weed control at 140 g/ha,[1]; [4],95 to 100%
same,pest or weed control at 35 g/ha,[1]; [5],0 to 29%
same,pest or weed control at 70 g/ha,[1]; [5],0 to 29%
same,pest or weed control at 140 g/ha,[1]; [5],0 to 29%
same,pest or weed control at 35 g/ha,[1]; [6],95 to 100%
same,pest or weed control at 70 g/ha,[1]; [6],95 to 100%
same,pest or weed control at 140 g/ha,[1]; [6],95 to 100%
same,pest or weed control at 35 g/ha,[1]; [7],95 to 100%
same,pest or weed control at 70 g/ha,[1]; [7],95 to 100%
same,pest or weed control at 140 g/ha,[1]; [7],95 to 100%
same,pest or weed control at 35 g/ha,[1]; [8],60 to 74%
same,pest or weed control at 70 g/ha,[1]; [8],60 to 74%
same,pest or weed control at 140 g/ha,[1]; [8],75 to 84%
same,pest or weed control at 35 g/ha,[2]; [9],45 to 59%
same,pest or weed control at 70 g/ha,[2]; [9],75 to 84%
same,pest or weed control at 140 g/ha,[2]; [9],85 to 94%
same,pest or weed control at 35 g/ha,[2]; [10],0 to 29%
same,pest or weed control at 70 g/ha,[2]; [10],0 to 29%
same,pest or weed control at 140 g/ha,[2]; [10],0 to 29%
same,pest or weed control at 35 g/ha,[2]; [11],0 to 29%
same,pest or weed control at 70 g/ha,[2]; [11],95 to 100%
same,pest or weed control at 140 g/ha,[2]; [11],95 to 100%
same,pest or weed control at 35 g/ha,[2]; [12],0 to 29%
same,pest or weed control at 70 g/ha,[2]; [12],0 to 29%
same,pest or weed control at 140 g/ha,[2]; [12],0 to 29%
same,pest or weed control at 35 g/ha,[2]; [13],0 to 29%
same,pest or weed control at 70 g/ha,[2]; [13],0 to 29%
same,pest or weed control at 140 g/ha,[2]; [13],0 to 29%
same,pest or weed control at 35 g/ha,[2]; [14],0 to 29%
same,pest or weed control at 70 g/ha,[2]; [14],0 to 29%
same,pest or weed control at 140 g/ha,[2]; [14],0 to 29%
